Experimental data published in patent US8846928B2 (Portola Pharmaceuticals, Inc., priority 2010, dated 2014).

Each molecule was assayed against T1, full length active recombinant SYK enzyme (Homo sapiens, UniProt P43405) (assay: Inhibition of Syk tyrosine phosphorylation activity (LANCE TR-FRET kinase assay)).
T1 construct: full length active recombinant SYK enzyme (Millipore, Calif.); purchased Millipore
Assay type: biochemical

Compared with `NC(=O)c1cc(F)c(N[C@@H]2CCCC[C@@H]2N)nc1Nc1cc(F)c[n+]([O-])c1` [Example 408, 3-(6-((1R,2S)-2-aminocyclohexylamino)-3-carbamoyl-5-fluoropyridin-2-ylamino)-5-fluoropyridine 1-oxide], `Cc1cc(Nc2nc(N[C@@H]3CCCC[C@@H]3N)c(F)cc2C(N)=O)ccc1F` [Example 322, 6-((1R,2S)-2-aminocyclohexylamino)-5-fluoro-2-(4-fluoro-3-methylphenylamino)nicotinamide] is lower in IC50: 0.1 to 1 µM for the first, 0.001 to 0.01 µM for the second.

First: Cc1cc(C)cc(Nc2cc(N[C@@H]3CCCC[C@@H]3N)ccc2C(N)=O)c1 [Example 4, 4-((1R,2S)-2-aminocyclohexylamino)-2-(3,5-dimethylphenylamino)benzamide]
Second: Cc1cccc(Nc2nc(N[C@@H]3CCCC[C@@H]3N)c(F)cc2C(N)=O)c1 [Example 314, 6-((1R,2S)-2-aminocyclohexylamino)-5-fluoro-2-(m-tolylamino)nicotinamide]
The IC50 of the first is higher: 0.1 to 1 µM for the first, 0.001 to 0.01 µM for the second.

`NC(=O)c1cc(F)c(N[C@@H]2CCCC[C@@H]2N)nc1Nc1cncc(-c2nccs2)c1` [Example 162, 6-((1R,2S)-2-aminocyclohexylamino)-5-fluoro-2-(5-(thiazol-2-yl)pyridin-3-ylamino)nicotinamide] and `NC(=O)c1cc(F)c(N[C@@H]2CCCC[C@@H]2N)nc1Nc1cccc(-c2ccncn2)c1` [Example 56, 6-((1R,2S)-2-aminocyclohexylamino)-5-fluoro-2-(3-(pyrimidin-4-yl)phenylamino)nicotinamide] fall in the same range of IC50: 0.001 to 0.01 µM for the first, 0.001 to 0.01 µM for the second.

`CC[C@@H](Nc1ccc(C(N)=O)c(Nc2ccc3c(ccn3C)c2)n1)C(N)=O` [Example 208, (R)-6-(1-amino-1-oxobutan-2-ylamino)-2-(1-methyl-1H-indol-5-ylamino)nicotinamide] and `CC[C@@H](Nc1ccc(C(N)=O)c(Nc2ccc3cccnc3c2)n1)C(N)=O` [Example 204, (R)-6-(1-amino-1-oxobutan-2-ylamino)-2-(quinolin-7-ylamino)nicotinamide] fall in the same range of IC50: 0.01 to 0.1 µM for the first, 0.01 to 0.1 µM for the second.

`Cc1cc(Nc2cc(N[C@@H]3CCCC[C@@H]3N)c(F)cc2C(N)=O)sn1` [Example 21, 4-((1R,2S)-2-aminocyclohexylamino)-5-fluoro-2-(3-methylisothiazol-5-ylamino)benzamide] and `Cc1cc(Nc2cc(N[C@H](CC3CC3)C(N)=O)c(F)cc2C(N)=O)sn1` [Example 25, (R)-4-(1-amino-3-cyclopropyl-1-oxopropan-2-ylamino)-5-fluoro-2-(3-methylisothiazol-5-ylamino)benzamide] fall in the same range of IC50: 0.01 to 0.1 µM for the first, 0.01 to 0.1 µM for the second.

`Cc1cc(Nc2nc(N[C@@H](C(N)=O)C3CC3)c(F)cc2C(N)=O)sn1` [Example 198, (R)-6-(2-amino-1-cyclopropyl-2-oxoethylamino)-5-fluoro-2-(3-methylisothiazol-5-ylamino)nicotinamide] and `CC[C@@H](Nc1nc(Nc2cncc(C)c2)c(C(N)=O)cc1F)C(N)=O` [Example 235, (R)-6-(1-amino-1-oxobutan-2-ylamino)-5-fluoro-2-(5-methylpyridin-3-ylamino)nicotinamide] fall in the same range of IC50: 0.01 to 0.1 µM for the first, 0.01 to 0.1 µM for the second.

First: Cn1ccc2c(Nc3nc(N[C@@H]4CCCC[C@@H]4N)c(F)cc3C(N)=O)cccc21 [Example 64, 6-((1R,2S)-2-aminocyclohexylamino)-5-fluoro-2-(1-methyl-1H-indol-4-ylamino)nicotinamide]
Second: NC(=O)c1cc(F)c(N[C@@H]2CCCC[C@@H]2N)nc1Nc1ccnc2ccccc12 [Example 72]
The IC50 of the first is lower: under 0.001 µM for the first, 0.001 to 0.01 µM for the second. The first is the more potent here.

`NC(=O)c1ccc(N[C@@H]2CCCC[C@@H]2N)nc1Nc1ccc2scnc2c1` [Example 400, 6-((1R,2S)-2-aminocyclohexylamino)-2-(benzo[d]thiazol-5-ylamino)nicotinamide] and `NC(=O)c1ccc(N[C@@H]2CCCC[C@@H]2N)nc1Nc1ccc2cnccc2c1` [Example 135, 2-(isoquinolin-6-ylamino)-6-((1R,2S)-2-aminocyclohexylamino)nicotinamide] fall in the same range of IC50: 0.001 to 0.01 µM for the first, 0.001 to 0.01 µM for the second.

`Cc1ccc(Nc2nc(N[C@H]3[C@@H](N)CCCC3(F)F)c(F)cc2C(N)=O)cc1` [Example 346] and `Cc1cccc(Nc2nc(N[C@@H]3CCCC(F)(F)[C@@H]3N)c(F)cc2C(N)=O)c1` [Example 335, 6-((1R,2R)-2-amino-3,3-difluorocyclohexylamino)-5-fluoro-2-(m-tolylamino)nicotinamide] fall in the same range of IC50: 0.01 to 0.1 µM for the first, 0.01 to 0.1 µM for the second.

`CC(C)C[C@@H](Nc1nc(Nc2ccc3cccnc3c2)c(C(N)=O)cc1F)C(N)=O` [Example 246, (R)-6-(1-amino-4-methyl-1-oxopentan-2-ylamino)-5-fluoro-2-(quinolin-7-ylamino)nicotinamide] and `NC(=O)c1cc(F)c(N[C@H](CC2CC2)C(N)=O)nc1Nc1ccc2cccnc2c1` [Example 250, (R)-6-(1-amino-3-cyclopropyl-1-oxopropan-2-ylamino)-5-fluoro-2-(quinolin-7-ylamino)nicotinamide] fall in the same range of IC50: 0.01 to 0.1 µM for the first, 0.01 to 0.1 µM for the second.

First: NC(=O)c1cc(F)c(N[C@@H]2CCCC[C@@H]2N)nc1Nc1ccc(Cl)cc1 [Example 318, 6-((1R,2S)-2-aminocyclohexylamino)-2-(4-chlorophenylamino)-5-fluoronicotinamide]
Second: NC(=O)c1cc(F)c(N[C@@H]2CCCC[C@@H]2N)nc1Nc1cccc(Cl)c1 [Example 317, 6-((1R,2S)-2-aminocyclohexylamino)-2-(3-chlorophenylamino)-5-fluoronicotinamide]
The IC50 of the first is higher: 0.01 to 0.1 µM for the first, 0.001 to 0.01 µM for the second. The second is the more potent here.

`NC(=O)c1cc(F)c(N[C@H](CC(F)(F)F)C(N)=O)nc1Nc1cnc2ccccc2c1` [Example 301, (R)-6-(1-amino-4,4,4-trifluoro-1-oxobutan-2-ylamino)-5-fluoro-2-(quinolin-3-ylamino)nicotinamide] and `NC(=O)c1cc(F)c(NC(CC(F)(F)F)C(N)=O)nc1Nc1cnc2ccccc2c1` (stereo not shown) [Example 377, 6-(1-amino-4,4,4-trifluoro-1-oxobutan-2-ylamino)-5-fluoro-2-(quinolin-3-ylamino)nicotinamide] fall in the same range of IC50: 0.01 to 0.1 µM for the first, 0.01 to 0.1 µM for the second.

First: Cc1cc(F)cc(Nc2nc(N[C@@H]3CCCC(F)(F)[C@@H]3N)c(F)cc2C(N)=O)c1 [Example 339, 6-((1R,2R)-2-amino-3,3-difluorocyclohexylamino)-5-fluoro-2-(3-fluoro-5-methylphenylamino)nicotinamide]
Second: NC(=O)c1cc(F)c(N[C@@H]2CCCC(F)(F)[C@@H]2N)nc1Nc1cccc2ncccc12 [Example 327, 6-((1R,2R)-2-amino-3,3-difluorocyclohexylamino)-5-fluoro-2-(quinolin-5-ylamino)nicotinamide]
The IC50 of the first is lower: 0.01 to 0.1 µM for the first, 0.1 to 1 µM for the second. The first is the more potent here.

First: Cc1cc(Nc2cc(N[C@H](Cc3ccccc3)C(N)=O)c(F)cc2C(N)=O)sn1 [Example 24, (R)-4-(1-amino-1-oxo-3-phenylpropan-2-ylamino)-5-fluoro-2-(3-methylisothiazol-5-ylamino)benzamide]
Second: Cc1cc(Nc2cc(N[C@H](CC(C)C)C(N)=O)ccc2C(N)=O)sn1 [Example 9, (R)-4-(1-amino-4-methyl-1-oxopentan-2-ylamino)-2-(3-methylisothiazol-5-ylamino)benzamide]
The IC50 of the first is lower: 0.001 to 0.01 µM for the first, 0.01 to 0.1 µM for the second.

`CC[C@H](CN)Nc1nc(Nc2ccc3ncccc3c2)c(C(N)=O)cc1F` [Example 94, (R)-6-(1-aminobutan-2-ylamino)-5-fluoro-2-(quinolin-6-ylamino)nicotinamide] and `CC[C@@H](Nc1nc(Nc2ccc3ccccc3c2)c(C(N)=O)cc1F)C(N)=O` [Example 233, (R)-6-(1-amino-1-oxobutan-2-ylamino)-5-fluoro-2-(naphthalen-2-ylamino)nicotinamide] fall in the same range of IC50: 0.001 to 0.01 µM for the first, 0.001 to 0.01 µM for the second.

First: C[C@H](CN)Nc1nc(Nc2cccc(-n3nccn3)c2)c(C(N)=O)cc1C#N [Example 109, (R)-2-(3-(2H-1,2,3-triazol-2-yl)phenylamino)-6-(1-aminopropan-2-ylamino)-5-cyanonicotinamide]
Second: NC(=O)c1ccc(N[C@@H]2CCCC[C@@H]2N)nc1Nc1cncc(-n2nccn2)c1 [Example 158]
The IC50 of the first is higher: 0.01 to 0.1 µM for the first, 0.001 to 0.01 µM for the second. The second is the more potent here.

`NC(=O)c1ccc(N[C@@H]2CCCC[C@@H]2N)nc1Nc1csc2ncccc12` [Example 402, 6-((1R,2S)-2-aminocyclohexylamino)-2-(thieno[2,3-b]pyridin-3-ylamino)nicotinamide] and `NC(=O)c1cc(F)c(N[C@@H]2CCCC[C@@H]2N)nc1Nc1ccc2ncsc2c1` [Example 60, 6-((1R,2S)-2-aminocyclohexylamino)-2-(benzo[d]thiazol-6-ylamino)-5-fluoronicotinamide] cannot be ordered by IC50: under 0.001 µM for the first, under 0.001 µM for the second.

Compared with `NC(=O)c1cc(F)c(NC[C@@H](N)CC(F)F)nc1Nc1cncc(F)c1` [Example 382, (S)-6-(2-amino-4,4-difluorobutylamino)-5-fluoro-2-(5-fluoropyridin-3-ylamino)nicotinamide], `Cc1cccc(Nc2nc(NC[C@@H](N)CC(F)F)c(F)cc2C(N)=O)c1` [Example 380, (S)-2-(m-toluidino)-6-(2-amino-4,4-difluorobutylamino)-5-fluoronicotinamide] is lower in IC50: 0.1 to 1 µM for the first, 0.01 to 0.1 µM for the second.

`NC(=O)c1cc(F)c(N[C@@H]2CCCC[C@@H]2N)nc1Nc1ccc(-c2ccncn2)cc1` [Example 59, 6-(1R,2S)-2-aminocyclohexylamino)-5-fluoro-2-(4-(pyrimidin-4-yephenylamino)nicotinamide] and `COCCOc1cccc(Nc2nc(N[C@@H]3CCCC[C@@H]3N)c(F)cc2C(N)=O)c1` [Example 79, 6-((1R,2S)-2-aminocyclohexylamino)-5-fluoro-2-(3-(2-methoxyethoxy)phenylamino)nicotinamide] fall in the same range of IC50: 0.001 to 0.01 µM for the first, 0.001 to 0.01 µM for the second.

First: CC[C@@H](Nc1nc(Nc2cccc(OC(F)F)c2)c(C(N)=O)cc1F)C(N)=O [Example 264, (R)-6-(1-amino-1-oxobutan-2-ylamino)-5-fluoro-2-(3-(difluoromethoxy)phenylamino)nicotinamide]
Second: CC[C@@H](Nc1nc(Nc2ccc3ncsc3c2)c(C(N)=O)cc1F)C(N)=O [Example 234, (R)-6-(1-amino-1-oxobutan-2-ylamino)-5-fluoro-2-(benzo[d]thiazol-6-ylamino)nicotinamide]
The IC50 of the first is higher: 0.1 to 1 µM for the first, 0.01 to 0.1 µM for the second. The second is the more potent here.
